Experimental data reported in PMC11934079, “Structural and Mechanistic Characterization of the Flavin-Dependent Monooxygenase and Oxidase Involved in Sorbicillinoid Biosynthesis” (ACS Chemical Biology, 2025).

Legend:
SorC [1] = target: T1, SorC (Penicillium rubens, UniProt B6HN76); test: enzyme kinetics; format: biochemical; conditions: coenzyme; hydroxylation of sorbicillin
T1 construct: monomer

SorD [2] = target: T2, SorD (Penicillium rubens, UniProt B6HNK6); test: microscale thermophoresis; format: binding
T2 construct: C-terminal His6 tag, endogenous signal peptide (residues 5-22 partly seen in structure), secreted from Aspergillus niger; N-glycosylated; ~50 kDa theoretical, 61 kDa measured; monomer; FAD covalent at His78

SorC [3] = target: T1, SorC; test: microscale thermophoresis; format: binding
SorC [4] = target: T3, SorC (Penicillium rubens, UniProt B6HN76, R201A); test: microscale thermophoresis; format: binding
T3 construct: monomer

SorC [5] = target: T1, SorC; test: X-ray crystal structure, […] Å; format: binding; conditions: flavin out conformation; without sorbicillin
SorD [6] = target: T2, SorD; test: X-ray crystal structure, […] Å; format: binding; conditions: covalent; attached to His78; without sorbicillin

T1 sequence (B6HN76 whole entry): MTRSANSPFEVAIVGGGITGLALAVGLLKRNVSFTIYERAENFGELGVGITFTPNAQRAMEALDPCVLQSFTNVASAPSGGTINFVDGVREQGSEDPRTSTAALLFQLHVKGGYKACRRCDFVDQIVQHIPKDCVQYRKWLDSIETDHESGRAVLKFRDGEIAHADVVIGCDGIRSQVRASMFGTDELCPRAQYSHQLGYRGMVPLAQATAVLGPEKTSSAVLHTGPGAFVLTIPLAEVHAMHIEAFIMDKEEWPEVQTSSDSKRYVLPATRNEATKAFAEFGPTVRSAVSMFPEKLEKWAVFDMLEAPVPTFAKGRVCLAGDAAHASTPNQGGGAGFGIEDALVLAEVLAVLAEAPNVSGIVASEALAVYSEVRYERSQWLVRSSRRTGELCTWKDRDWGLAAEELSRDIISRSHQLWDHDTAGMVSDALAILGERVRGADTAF
T2 sequence (B6HNK6 whole entry, the tested form may be a part): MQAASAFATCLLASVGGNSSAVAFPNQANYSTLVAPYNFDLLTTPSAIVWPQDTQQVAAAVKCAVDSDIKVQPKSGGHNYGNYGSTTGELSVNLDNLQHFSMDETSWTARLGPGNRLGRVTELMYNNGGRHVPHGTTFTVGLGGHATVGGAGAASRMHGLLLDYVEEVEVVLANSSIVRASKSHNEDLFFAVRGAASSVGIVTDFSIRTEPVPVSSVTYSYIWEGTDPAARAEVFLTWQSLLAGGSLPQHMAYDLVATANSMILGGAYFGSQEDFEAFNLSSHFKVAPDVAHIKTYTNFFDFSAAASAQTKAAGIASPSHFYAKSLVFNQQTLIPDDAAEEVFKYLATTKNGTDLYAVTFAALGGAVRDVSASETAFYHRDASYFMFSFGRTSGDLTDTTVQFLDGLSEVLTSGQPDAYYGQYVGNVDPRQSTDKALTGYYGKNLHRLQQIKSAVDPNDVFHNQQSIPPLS
T3 sequence (B6HN76 whole entry R201A): as the sequence (B6HN76 whole entry) above, with R201A counted along it

## NC(=O)C1=CN([C@@H]2O[C@H](COP(=O)(O)OP(=O)(O)OC[C@H]3O[C@@H](n4cnc5c(N)ncnc54)[C@H](OP(=O)(O)O)[C@@H]3O)[C@@H](O)[C@H]2O)C=CC1 [NADPH]
SorC [1]
  catalytic efficiency: both NADH and NADPH were accepted as coenzymes

## NC(=O)C1=CN([C@@H]2O[C@H](COP(=O)(O)OP(=O)(O)OC[C@H]3O[C@@H](n4cnc5c(N)ncnc54)[C@H](O)[C@@H]3O)[C@@H](O)[C@H]2O)C=CC1 [NADH]
SorC [1]
  catalytic efficiency: both NADH and NADPH were accepted as coenzymes, with NADH having a higher overall catalytic efficiency

## C/C=C/C=C/C(=O)c1cc(C)c(O)c(C)c1O [compound 1, sorbicillin]
SorD [2]
  Kd: 1200 ± 1600 nM
SorC [3]
  Kd: 940 ± 93 nM
SorC [4]
  Kd: 12600 ± 9700 nM

## Cc1cc2nc3c(=O)[nH]c(=O)nc-3n(C[C@H](O)[C@H](O)[C@H](O)COP(=O)(O)OP(=O)(O)OC[C@H]3O[C@@H](n4cnc5c(N)ncnc54)[C@H](O)[C@@H]3O)c2cc1C [FAD]
SorC [5]
  X-ray crystal structure, 1.4 Å: SorC without sorbicillin shows that the oxidized flavin is already in the out conformation
SorD [6]
  X-ray crystal structure, 1.55 Å: SorD, where the FAD is covalently attached to residue His78
